According to publication PMC10541190 (The Journal of Clinical Investigation, 2023):
Values joined by “and” are separate entries in the source; they are usually repeats but may differ in a detail not shown here. Identical values can stand only once.

Assays:
[1] = in vitro; conditions: human, U-87 MG cell viability (%)
[2] = tested on: SARS-CoV-2 (USA-WA1/2020); experiment: microbe, parasite or virus in culture; assay type: cell-based; conditions: for EC50: Severe acute respiratory syndrome coronavirus 2, Vero, 24 h, read-out: SARS-CoV-2 EC50
[3] = in vitro; conditions: human, Huh7 cell viability (%)
[4] = tested on: VEEV (TC-83); assay type: cell-based
[5] = in vitro; conditions: African green monkey
[6] = tested on: DENV2; assay type: cell-based
[7] = tested on: SARS-CoV-2 (Belgium-GHB-03021); assay type: cell-based

| Compound | EC50 [2] [µM] | viability at 0.37 µM [3] [%] | viability at 3.33 µM [3] [%] | viability at 10 µM [3] [%] | viability at […] [3] | CC50 [5] [µM] | replication of DENV2 [6] | replication of TC-83 [4] | other results |
| --- | --- | --- | --- | --- | --- | --- | --- | --- | --- |
| CC(C)(C)c1cc(C=C(C#N)C#N)cc(C(C)(C)C)c1O [Tyrphostin A9] | 16.5 | 101 | 89.2 | 88 | 90.8% and 98.7% | > 20 | – | – | viability at 0.25 µM [1]: 96.7%; viability at 0.74 µM [1]: 85%; viability at 2.22 µM [1]: 85.2%; viability at 6.67 µM [1]: 78.3%; viability at 20 µM [1]: 70.1%; anti-TC-83 and DENV2 activity compared with anti-SARS-CoV-2 activity [4]: more potent |
| O=C1NCN(c2ccccc2)C12CCN(CCCC(c1ccc(F)cc1)c1ccc(F)cc1)CC2 [Fluspirilene] | 15.2 | 93.4 | 87.3 | 70.9 | 93.9% and 95.5% | > 20 | – | – | anti-TC-83 and DENV2 activity compared with anti-SARS-CoV-2 activity [4]: more potent |
| CC(C)(C)c1cc(/C=C(\C#N)C(N)=S)cc(C(C)(C)C)c1O [Tyrphostin AG 879] | 0.6 | 100 | 98.8 | 95.1 | 102% and 98.9% | > 20 | dose-dependently inhibited replication | dose-dependently inhibited replication | – |
| [N-]=[N+]=CC(=O)OC[C@H](N)C(=O)O [Azaserine] | 0.7 | 114 | 69.5 | 60.6 | 107% | > 20 | dose-dependently inhibited replication | dose-dependently inhibited replication | – |
| CNc1ccc2oc(C[C@H]3O[C@@]4(CC[C@H]3C)O[C@H]([C@H](C)C(=O)c3ccc[nH]3)[C@H](C)C[C@H]4C)nc2c1C(=O)O [Calcimycin] | 0.6 | 98 | 50.5 | 23.5 | 77.7% and 102% | > 20 | dose-dependently inhibited replication | dose-dependently inhibited replication | – |
| O[C@H]1[C@H]2c3cc4c(cc3CN3CCC(=C[C@@H]1O)[C@H]23)OCO4 [Lycorine] | 0.5 | 93.2 | 68.1 | 66.6 | 82.9% and 95% | > 20 | dose-dependently inhibited replication | dose-dependently inhibited replication | viability at 0.37 µM [1]: 92.9%; viability at 3.33 µM [1]: 67.1%; viability at 10 µM [1]: 61.2%; viability at […] [1]: 81.7% and 97.3% |
| CC(C)(C)NCC(O)c1ccc(O)c(CO)c1 (stereo not shown) [Salbutamol] | > 20 | – | – | – | – | > 20 | minimal to no activity | minimal to no activity | activity against SARS-CoV-2 [2]: minimal to no activity |
| CC[C@@H](C(=O)[C@@H](C)[C@@H](O)[C@H](C)[C@@H]1O[C@@H]([C@@H](CC)C(=O)O)CC[C@@H]1C)[C@H]1O[C@]2(C=C[C@@H](O)[C@]3(CC[C@@](C)([C@H]4CC[C@](O)(CC)[C@H](C)O4)O3)O2)[C@H](C)C[C@@H]1C [salinomycin] | – | – | – | – | – | – | – | – | Fluorescence (%area) [7]: greater than 15 |
| CCC(CC)COC(=O)[C@H](C)N[P@](=O)(OC[C@H]1O[C@@](C#N)(c2ccc3c(N)ncnn23)[C@H](O)[C@@H]1O)Oc1ccccc1 [Remdesivir] | – | – | – | – | – | – | – | – | rescue of Vero-eGFP cells from SARS-CoV-2-induced lethality, dose response [7]: dose-dependent anti-SARS-CoV-2 activity |
| CC[C@@]1([C@@H]2O[C@@H]([C@H]3O[C@@](O)(CO)[C@H](C)C[C@@H]3C)C[C@@H]2C)CC[C@H]([C@]2(C)CC[C@]3(C[C@H](O)[C@@H](C)[C@@H]([C@@H](C)[C@@H](OC)[C@H](C)C(=O)O)O3)O2)O1 [Monensin] | 1.2 | 70.5 | 32.2 | 22.1 | 47.9% and 83.7% | > 20 | dose-dependently inhibited replication | dose-dependently inhibited replication | – |
